This note sets out measurements from patent publication US5100895A, “Heterocyclic compounds and their preparation and use” (Novo Nordisk A/S, priority 1989, dated 1992).

By ED50 is commonly meant the midpoint of the dose-response relation. Higher therefore signals weaker potency.

Each structure is given as a SMILES string.

This assay concerns benzodiazepine receptors. The assay can be described thus: in vivo displacement of 3H-flunitrazepam specific binding to benzodiazepine receptors in a living brain. The note with it: dose which causes specific binding of 3H-flunitrazepam to benzodiazepine receptors in a living brain to be reduced to 50% of the control value. The text has this:
The pharmaceutical properties of the compounds of the invention can be illustrated by determining their capability for displacing radioactive labelled flunitrazepam from benzodiazepine receptors.
The displacement activity of the compounds of the invention may be found by determining the ED50 value. The ED50 value represents the dose (mg/kg) of a test substance which causes the specific binding of ^3 H-flunitrazepam to benzodiazepine receptors in a living brain to be reduced to 50% of the control value.
Such an in vivo test is carried out as described in U.S. Pat. No. 4,774,245.
A general note: Loss of bound radioactivity is the signal in a displacement assay; it reports binding, not function.
As for `FC(F)(F)c1cccc2c1C1=NCCN1c1c(-c3noc(C4CC4)n3)ncn1-2` [Compound 12, 5-(5-Cyclopropyl-1,2,4-oxadiazol-3-yl)-2,3-dihydro-12-trifluoromethyldiimidazo[1,5-a:1',2'-c]quinazoline], the ED50 is 0.08 mg/kg.
With `Brc1cccc2c1C1=NCCN1c1c(-c3nc(C4CC4)no3)ncn1-2` [Compound 8, 12-Bromo-5-(3-cyclopropyl-1,2,4-oxadiazol-5-yl)-2,3-dihydrodiimidazo[1,5-a:1',2'-c]quinazoline] the figure was 1.7 mg/kg; with `Fc1ccc2c(c1)C1=NCCN1c1c(-c3noc(C4CC4)n3)ncn1-2` [Compound 21, 5-(5-Cyclopropyl-1,2,4-oxadiazol-3-yl)-11-fluoro-2,3-dihydrodiimidazo[1,5-a:1',2'-c]quinazoline], 0.26 mg/kg; with `Brc1cccc2c1C1=NCCN1c1c(-c3noc(C4CC4)n3)ncn1-2` [Compound 7, 12-Bromo-5-(5-cyclopropyl-1,2,4-oxadiazol-3-yl)-2,3-dihydroiimidazo[1,5-a:1',2'-c]quinazoline], 0.92 mg/kg.
With `FC(F)(F)c1cccc2c1c1nccn1c1c(-c3noc(C4CC4)n3)ncn21` [Compound 28, 5-(5-Cyclopropyl-1,2,4-oxadiazol-3-yl)-12-trifluoromethyldiimidazo[1,5-a:1',2'-c]quinazoline] the figure was 0.12 mg/kg; with `FC(F)(F)c1cccc2c1C1=NCCN1c1c(-c3nc(C4CC4)no3)ncn1-2` [Compound 19, 5-(3-Cyclopropyl-1,2,4-oxadiazol-5-yl)-2,3-dihydro-12-trifluoromethyldiimidazo[1,5-a:1',2'-c]quinazoline], 0.08 mg/kg; with `Clc1cccc2c1C1=NCCN1c1c(-c3noc(C4CC4)n3)ncn1-2` [Compound 6, 12-Chloro-5-(5-cyclopropyl-1,2,4-oxadiazol-3-yl)-2,3-dihydrodiimidazo[1,5-a:1',2'-c]quinazoline], 0.23 mg/kg.
With `c1ccc2c(c1)C1=NCCN1c1c(-c3noc(C4CC4)n3)ncn1-2` [Compound 1, 5-(5-cyclopropyl-1,2,4-oxadiazol-3-yl)-2,3-dihydrodiimidazol[1,5-a:1',2'-c]quinazoline] the figure was 0.47 mg/kg.
